# Experimental data as given in ChEMBL document CHEMBL2203011, “Psammaplysin derivatives from the Balinese marine sponge Aplysinella strongylata” (J Nat Prod, 2012).
# Active and inactive are the calls of the source. No cut-off for these calls is given here.
# System: Plasmodium falciparum
# Assay: Antiplasmodial activity against chloroquine-sensitive Plasmodium falciparum 3D7 infected in erythrocytes assessed as growth inhibition at 10 uM incubated for 48 hrs by [3H]hypoxanthine incorporation assay
# Assay type: functional, organism-based
row,Structure (SMILES),growth inhibition (GI)
1,COC1=C(Br)C[C@]2(OC=C1Br)ON=C(C(=O)NCCCOc1c(Br)cc(CCNC(=O)CO)cc1Br)[C@@H]2O,inactive
2,CCCCC/C=C\CCCCCCCCC(=O)NCCc1cc(Br)c(OCCCNC(=O)C2=NO[C@@]3(CC(Br)=C(OC)C(Br)=CO3)[C@H]2O)c(Br)c1,inactive
3,CCC(C)CCCCCCCCCCCCCCC(=O)NCCc1cc(Br)c(OCCCNC(=O)C2=NO[C@@]3(CC(Br)=C(OC)C(Br)=CO3)[C@H]2O)c(Br)c1 (some centres undefined),inactive
4,COC1=C(Br)C[C@]2(OC=C1Br)ON=C(C(=O)NCCCOc1c(Br)cc(C3CNC(=O)O3)cc1Br)[C@@H]2O (some centres undefined),inactive
5,COC1=C(Br)C[C@]2(OC=C1Br)ON=C(C(=O)NCCCOc1c(Br)cc(CCNC(=O)CCCCCCCCCCCCC(C)C)cc1Br)[C@@H]2O,inactive
6,COC1=C(Br)C[C@]2(OC=C1Br)ON=C(C(=O)NCCCOc1c(Br)cc(C=O)cc1Br)[C@@H]2O,inactive
7,CCCCCCCCCCCCCCCCCC(=O)NCC(O)c1cc(Br)c(OCCCNC(=O)C2=NO[C@@]3(CC(Br)=C(OC)C(Br)=CO3)[C@H]2O)c(Br)c1 (some centres undefined),inactive
8,COC1=C(Br)C[C@]2(OC=C1Br)ON=C(C(=O)NCCCOc1c(Br)cc(C(O)CNC=C3C(=O)C=CC3=O)cc1Br)[C@@H]2O (some centres undefined),Active

# System: Plasmodium falciparum
# Assay: Antiplasmodial activity against chloroquine-sensitive Plasmodium falciparum 3D7 infected in erythrocytes assessed as growth inhibition incubated for 48 hrs by [3H]hypoxanthine incorporation assay
# Assay type: functional, organism-based
row,Structure (SMILES),IC50 [µM]
1,COC1=C(Br)C[C@]2(OC=C1Br)ON=C(C(=O)NCCCOc1c(Br)cc(C(O)CNC=C3C(=O)C=CC3=O)cc1Br)[C@@H]2O (some centres undefined),6.4
